Test system: 362531-283-R-J2-PDC complex spheroid viability
Experiment: Anticancer human tumor 362531-283-R-J2-PDC patient-derived colon adenocarcinoma cell line growth inhibition [RAS]
Settings: for IC50: curve of first compound; for viability, T/C: stronger effect = lower value
Text: RAS pathway inhibitors in Combinations in Complex Spheroids
A high-throughput screen of multi-cell type tumor spheroids was designed to identify active combinations of RAS pathway inhibitors and targeted small molecules. Complex spheroids include a stromal component modeled by human endothelial cells (HUVEC) and fibroblasts modeled by human mesenchymal stem cells (MSCs). The concentration ranges selected for each drug and investigational agent were based upon clinically achievable concentrations if the clinical Cmax of the agent was known.
Compounds. The drugs and investigational agents: abemaciclib (NSC768073), cobimetinib (NSC768068), divarasib (GDC6063, NSC841802), docetaxel (NSC628503), GDC-1971 (RLY-1971, NSC841576), gemcitabine (NSC613327), inavolisib (NSC800729), ipatasertib (NSC767898), KB-0742 (NSC834161), MRTX-1133 (NSC836407), osimertinib (NSC779217), RMC-4630 (NSC839698), RMC-6236 (NSC851965), RMC-6291 (NSC852671), Ro-3306 (NSC812927), sapanisertib (NSC764658), SN-38 (NSC673596), staurosporine (NSC755774), SY5609 (NSC837396), and tovorafenib (DAY101, NSC766906), were obtained from the National Cancer Institute (NCI) Developmental Therapeutics Program Chemical Repository. The FDA-approved anticancer drug set is available from the NCI Developmental Therapeutics Program. […] The stock solutions were prepared in dimethyl sulfoxide (DMSO, Sigma-Aldrich, St. Louis, MO, cat. D2650) at 800-fold the tested concentration and stored at -70 degrees C prior to their use. All drugs and investigational agents were tested over a range starting from a high concentration at or near the clinical Cmax and decreasing in half-log increments. If the clinical Cmax for an agent had not been determined, the highest concentration tested was 10 microM.
Cell Culture. All cells were maintained in an incubator at 37 degrees C and 5% CO2 with 95% humidity. The PDC lines were cultured according to standard operating procedures established by the NCI PDMR. All PDCs were thawed and cultured in Matrigel-coated flasks prepared with a working solution of 1X Ham's F-12 nutrient mix, without supplementation (Invitrogen, Waltham, MA, cat. 11765054), 100 U/mL penicillin-streptomycin (Invitrogen, cat. 15140122), and 2.5% Matrigel (Corning Inc., Corning, NY, cat. 354248) for the first three passages. The 362531-283-R-J2-PDC and 782815-120-R-J1-PDC lines were cultured in 6C/Colon 1B media, which includes advanced DMEM/F-12 (Thermo Fisher Scientific, cat. 12634028), 10 mM HEPES (Thermo Fisher Scientific, cat. 15630080), 1X GlutaMAX supplement (Thermo Fisher Scientific, cat. 35050061), 0.1 mg/mL primocin (InvivoGen, San Diego, CA, cat. ant-pm-2), 10% defined fetal bovine serum, heat inactivated (HyClone Laboratories Inc., Logan, UT, cat. SH30070.03HI), 50% L-WRN conditioned media (ATCC, cat. CRL-3276), 1.25 mM N-Acetyl-L-cysteine (Sigma-Aldrich, cat. A9165), 10 mM nicotinamide (Sigma-Aldrich, cat. N0636), 1X B-27 supplement (Thermo Fisher Scientific, cat. 17504044), 1X N-2 supplement (Thermo Fisher Scientific, cat. 17502048), 50 ng/mL human EGF (Thermo Fisher Scientific, cat. PHG0311), and 10 microM Y-27632 dihydrochloride (Tocris Bioscience, cat. 1254). The K12877-001-R-J1-PDC line was cultured in 6I media, which includes all 6C/Colon 1B media plus 10 ng/mL human FGF-10 (PeproTech, cat. 100-26), 1 ng/mL human FGF-2 (PeproTech, cat. 100-18B), 1 µM prostaglandin E2 (Tocris Bioscience, cat. 2296), […] hydrocortisone (Sigma-Aldrich, cat. H4001), and […] bovine insulin (Sigma-Aldrich, cat. I6634). The K86415-001-R-J1-PDC line was cultured in 6D media, which includes all 6C/Colon 1B media components minus the L-WRN conditioned media. The 485176-168-R4-J1-PDC was cultured in PANC media, which includes all 6C/Colon 1B media plus 100 ng/mL human FGF-10 (PeproTech, cat. 100-26), 500 nM SB-431542 (Selleckchem, cat. S1067), and 10 nM gastrin (Tocris Bioscience, cat. 3006). […]

[1] = second compound 0.0316 µM, first compound 0.0316 µM
[2] = second compound 0.0316 µM, first compound 0.1 µM
[3] = second compound 0.0316 µM, first compound 0.316 µM
[4] = second compound 0.0316 µM, first compound 1 µM
[5] = second compound 0.1 µM, first compound 0.0316 µM
[6] = second compound 0.1 µM, first compound 0.1 µM
[7] = second compound 0.1 µM, first compound 0.316 µM
[8] = second compound 0.1 µM, first compound 1 µM
[9] = second compound 0.316 µM, first compound 0.0316 µM
[10] = second compound 0.316 µM, first compound 0.1 µM
[11] = second compound 0.316 µM, first compound 0.316 µM
[12] = second compound 0.316 µM, first compound 1 µM
[13] = second compound 1 µM, first compound 0.0316 µM
[14] = second compound 1 µM, first compound 0.1 µM
[15] = second compound 1 µM, first compound 0.316 µM
[16] = second compound 1 µM, first compound 1 µM
[17] = second compound 3.16 µM, first compound 0.0316 µM
[18] = second compound 3.16 µM, first compound 0.1 µM
[19] = second compound 3.16 µM, first compound 0.316 µM
[20] = second compound 3.16 µM, first compound 1 µM
[21] = second compound 10 µM, first compound 0.0316 µM
[22] = second compound 10 µM, first compound 0.1 µM
[23] = second compound 10 µM, first compound 0.316 µM
[24] = second compound 10 µM, first compound 1 µM
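Also: spheroids exposed to the agents for 7 days before readout.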
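For viability, T/C in this document: luminescence viability as percent of DMSO vehicle control wells.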

CCN1CCN(Cc2ccc(Nc3ncc(F)c(-c4cc(F)c5nc(C)n(C(C)C)c5c4)n3)nc2)CC1 + C#Cc1c(F)ccc2cc(O)cc(-c3ncc4c(N5CC6CCC(C5)N6)nc(OCC56CCCN5CC(F)C6)nc4c3F)c12
IC50 (second compound 0.0316 µM): 504 nM | IC50 (second compound 0.1 µM): 356 nM | IC50 (second compound 0.316 µM): 187 nM | IC50 (second compound 1 µM): 104 nM | IC50 (second compound 3.16 µM): 24.1 nM | IC50 (second compound 10 µM): < 3.16 nM | viability, T/C (second compound 0.0316 µM, first compound 0.00316 µM): 89.4% | viability, T/C (second compound 0.0316 µM, first compound 0.01 µM): 98.7% | viability, T/C [1]: 98.8% | viability, T/C [2]: 70.3% | viability, T/C [3]: 62.4% | viability, T/C [4]: 36.9% | viability, T/C (second compound 0.1 µM, first compound 0.00316 µM): 93.7% | viability, T/C (second compound 0.1 µM, first compound 0.01 µM): 93.6% | viability, T/C [5]: 81.4% | viability, T/C [6]: 63% | viability, T/C [7]: 57.4% | viability, T/C [8]: 28.8% | viability, T/C (second compound 0.316 µM, first compound 0.00316 µM): 93.8% | viability, T/C (second compound 0.316 µM, first compound 0.01 µM): 89.2% | viability, T/C [9]: 85.4% | viability, T/C [10]: 58.7% | viability, T/C [11]: 42% | viability, T/C [12]: 21.9% | viability, T/C (second compound 1 µM, first compound 0.00316 µM): 86.2% | viability, T/C (second compound 1 µM, first compound 0.01 µM): 88% | viability, T/C [13]: 74.1% | viability, T/C [14]: 50.5% | viability, T/C [15]: 29.8% | viability, T/C [16]: 20% | viability, T/C (second compound 3.16 µM, first compound 0.00316 µM): 77.6% | viability, T/C (second compound 3.16 µM, first compound 0.01 µM): 60.2% | viability, T/C [17]: 48.5% | viability, T/C [18]: 32.1% | viability, T/C [19]: 22.4% | viability, T/C [20]: 17% | viability, T/C (second compound 10 µM, first compound 0.00316 µM): 45.2% | viability, T/C (second compound 10 µM, first compound 0.01 µM): 42.5% | viability, T/C [21]: 30.9% | viability, T/C [22]: 23.6% | viability, T/C [23]: 16.7% | viability, T/C [24]: 12.2%

C[C@@H](NC(=O)c1ncnc(N)c1Cl)c1ncc(C(=O)Nc2cc(C(F)(F)F)c(Cl)cn2)s1 + C#Cc1c(F)ccc2cc(O)cc(-c3ncc4c(N5CC6CCC(C5)N6)nc(OCC56CCCN5CC(F)C6)nc4c3F)c12
IC50 (second compound 0.0316 µM): > 10000 nM | IC50 (second compound 0.1 µM): > 10000 nM | IC50 (second compound 0.316 µM): > 10000 nM | IC50 (second compound 1 µM): > 10000 nM | IC50 (second compound 3.16 µM): 8750 nM | IC50 (second compound 10 µM): 3610 nM | viability, T/C [1]: 92.9% | viability, T/C [2]: 111% | viability, T/C [3]: 111% | viability, T/C [4]: 97% | viability, T/C (second compound 0.0316 µM, first compound 3.16 µM): 92.4% | viability, T/C (second compound 0.0316 µM, first compound 10 µM): 70.5% | viability, T/C [5]: 104% | viability, T/C [6]: 97.1% | viability, T/C [7]: 94.8% | viability, T/C [8]: 95.3% | viability, T/C (second compound 0.1 µM, first compound 3.16 µM): 93.6% | viability, T/C (second compound 0.1 µM, first compound 10 µM): 66.1% | viability, T/C [9]: 94.2% | viability, T/C [10]: 96.9% | viability, T/C [11]: 93.4% | viability, T/C [12]: 94.4% | viability, T/C (second compound 0.316 µM, first compound 3.16 µM): 91.6% | viability, T/C (second compound 0.316 µM, first compound 10 µM): 60.7% | viability, T/C [13]: 94.3% | viability, T/C [14]: 84.8% | viability, T/C [15]: 99.3% | viability, T/C [16]: 87% | viability, T/C (second compound 1 µM, first compound 3.16 µM): 92.8% | viability, T/C (second compound 1 µM, first compound 10 µM): 52.5% | viability, T/C [17]: 78.6% | viability, T/C [18]: 80.3% | viability, T/C [19]: 79.2% | viability, T/C [20]: 74.1% | viability, T/C (second compound 3.16 µM, first compound 3.16 µM): 69.8% | viability, T/C (second compound 3.16 µM, first compound 10 µM): 47.2% | viability, T/C [21]: 63% | viability, T/C [22]: 75.4% | viability, T/C [23]: 71.7% | viability, T/C [24]: 60.6% | viability, T/C (second compound 10 µM, first compound 3.16 µM): 53.4% | viability, T/C (second compound 10 µM, first compound 10 µM): 31.6%
